≈ marks a conversion by molar mass, not a printed value. Where “and” joins values, the source holds several entries; their conditions need not be identical. Identical values can stand only once. Like-named read-outs stand apart in the source and are kept apart here.
Experiments:
[1] = system: murine splenocyte suspensions (BALB/c and C57BL/6J mice); assay: Mixed Lymphocyte Reaction (MLR); type: cell-based
Description: I. Mixed Lymphocyte Reaction
1. Murine splenocyte suspensions were prepared separately from BALB/c and C57BL/6J mice. […] The cell concentrations were adjusted to 2.5×10^6 cells/ml. Aliquots of each cell population were removed to separate tubes, and the remaining two cell suspensions combined to one tube.
(§1) 2. Serial, log10 dilutions of the pure compound were made in absolute ethanol, and 10 μl of each dilution was added to wells of microtiter test plates, and allowed to dry.
3. A volume of 0.2 ml of the combined splenocyte suspensions was added to triplicate test wells. Positive control wells received combined splenocyte suspensions in the absence of the test compounds. Negative control wells consisted of separate (not mixed) splenocyte suspensions cultured in the absence of the test compounds.
4. Plates were incubated in 5% CO2 at 37° C. for 86 hours.
5. A volume of 0.05 ml of ^3 H-thymidine (20 μCi/ml) was added to each well, and the plates were incubated in 5% CO2 at 37° C. for an additional 5 hours.
6. The contents of each well of the microtiter plates were harvested onto glass fiber filter strips, and the resulting filter discs placed in scintillation vials to which 2.0 ml of scintillation fluid was added.
7. The amount of incorporated ^3 H-thymidine was determined by counting the vials in a liquid scintillation counter.
8. Triplicate counts were averaged, and the data reported as a percentage of the positive control.

[2] = Lymphocyte Viability Assay (LCV); type: cell-based, murine; settings: mouse, splenocytes, read-out: % LCV (percentage of positive control)
Description: (§2) II. Lymphocyte Viability Assay
(§3) 1. Compounds were similarly tested in parallel with the MLR to determine their toxic effects on lymphoid cells using the lymphocyte viability assay (LCV).
as §1
(§4) 3. Murine splenocyte suspensions were prepared from BALB/c mice. […] The cell concentrations were adjusted to 2.5×10^6 cells/ml.
(§5) 4. A volume of 0.2 ml of the splenocyte suspension was added to replicate test wells. Positive control wells received splenocyte suspensions in the absence of the test compounds.
(§6) 5. Plates were incubated at 37° C. for 86 hours. At the end of the incubation period, a volume of 75 μl of a 2.0 mg/ml solution of MTT was added to each well, and the plates were returned to the incubator for an additional 5 hours.
(§7) 6. The supernatants from each microwell were then removed, and a volume of 200 μl of isopropanol was added and the contents mixed.
(§8) 7. Values were obtained by comparing the optical densities (determined at 570 and 650 nm) of wells containing the test compounds with those of wells containing cells and medium only (positive control). The results are expressed as a percentage of the positive control.
(§9) 8. Replicate counts were averaged, and the data reported as a percentage of the positive control. An LCV value of less than 60% of the positive control is an indication of cytotoxicity of the test compounds for lymphoid cells.

[3] = system: graft vs host reaction in CB6F1 mice grafted with BALB/c splenocytes; assay: Graft vs. Host (GVHR) in vivo activity
Description: III. Graft vs. Host (GVHR) In Vivo Activity
1. Donor mice (BALB/c) were sacrificed, spleens removed, and spleen cell suspensions prepared in tissue culture medium.
2. The above splenocyte suspension was adjusted to 10.0×10^7 cells/ml.
3. Mice were treated with varying dosages of the test compound. […] Treatment consisted of intraperitoneal injections, daily for 7 days. Dosages were calculated on a mg per kg body weight basis.
4. On day 1 of the first treatment regimen, recipient mice (CB6) were injected intraperitoneally with 0.50 ml (50.0×10^6) of the donor (BALB/c) splenocyte suspension.
5. Controls consisted of the following:
POS--mice receiving BALB/c splenocytes (Positive Control)
SYN--mice receiving CB6 splenocytes (Syngeneic Control)
CYP--mice receiving Cyclophosphamide (100 mg/kg) and BALB/c splenocytes
6. At the end of five days, recipient mice were sacrificed, weighed, and spleens removed and weighed.
7. A spleen index of 1.0 was assigned to the mean spleen weights (adjusted to body weight) of the SYN controls. The spleen index of treated mice was determined by comparing the spleen weights of those mice with that of the […]. […] As a general rule, a spleen index of less than the positive control is indicative of an immunosuppressive (ID) compound.
^a CB6F1 mice (5 mice per group) were grafted with 5 ×
10^7 BALB/c spelnocytes, i.p. on Day 0. Groups were injected, ii.p.,
with drug (or vehicle) on Days 1-6. Positive designates grafted mice
receiving vehicle alone.
^b Number of surviving mice at end of experiment.
(Stimulation Index of Syngeneic group (CB6F1 ->CB6F1) = 100

P388 cells = assay: Antiproliferative effects against P388 cells (antitumor, MTT); type: cell-based; settings: Mus musculus, P388, 48 hour exposure
Description: IV. Antitumor Methodology
To assess the antiproliferative effects against P388 cells, 200 μl cultures (96-well tissue culture plates, Nunc, Denmark) were established at 1×10^5 cells/ml in drug-free medium or medium containing the pure compounds/crude extracts at a final dilution or 1:500 and at various concentrations. Solvent for all dilutions was methanol, which was removed from plates under vacuum. All experimental cultures were initiated in media containing Gentamicin sulfate (50 μg/ml; Schering Corporation, Kenilworth, NJ).
To quantitate the effects of pure compounds/crude extracts on cell proliferation, 75 μl of warm growth medium containing 5 mg/ml MTT was added to each well, cultures were returned to the incubator, and were left undisturbed for 90 minutes. To spectrophotometrically quantitate formation of reduced formazan, plates were centrifuged (900×g, 5 minutes), culture fluids removed by aspiration, and 200 μl of acidified isopropanol (2 ml concentrated HCl/liter isopropanol) added per well. The absorbance of the resulting solutions were measured at 570 nm with a plate reader (MR700 Microplate Reader, Dynatech Laboratories, Chantilly, VA).

[4] = system: lymphoid cells (murine BALB/c splenocytes); assay: Lymphocyte Viability Assay (LCV); type: cell-based
Description: as §2, §3, §1, §4, §5, §6, §7, §8, §9

[5] = Mus musculus, Splenocyte, 0.05 μg/ml, read-out: % MLR (percentage of positive control)
[6] = Mus musculus, Splenocyte, 0.5 μg/ml, read-out: % MLR (percentage of positive control)
[7] = Mus musculus, Splenocyte, 5.0 μg/ml, read-out: % MLR (percentage of positive control)
[8] = Mus musculus, Splenocyte, 50 μg/ml, read-out: % MLR (percentage of positive control)

| SMILES | activity at 0.05 µg/mL [1, 5] [%] | activity at 0.5 µg/mL [1, 6] [%] | activity at 5 µg/mL [1, 7] [%] | activity at 50 µg/mL [1, 8] [%] | viability ([2]; 0.05 μg/ml) [%] | viability ([2]; 0.5 μg/ml) [%] | viability ([2]; 5.0 μg/ml) [%] | viability ([2]; 50 μg/ml) [%] | further results |
| --- | --- | --- | --- | --- | --- | --- | --- | --- | --- |
| C#CC(=O)CCCCCCCCCCCCCCCC [CH3 (CH2)15 COC≡CH] | 114 | 7 | 0 | 0 | 91 | 89 | 47 | 34 |  |
| C=CC(O)CCCCCCCCCCCCCCCC (centres unmarked) [CH3 (CH2)15 CHOHCH=CH2] | 99 | 74 | 0 | 0 | 80 | 80 | 2 | 5 |  |
| C#CC(O)CCCCCCCCCCCCCCCC (centres unmarked) [CH3 (CH2)15 CHOHC≡CH] | 0 | 0 | 0 | 0 | 49 | 22 | 24 | 22 | activity at 0.005 µg/mL ([1]; Mus musculus, Splenocyte, 0.005 μg/ml, read-out: % MLR (percentage of positive control)): 0%; viability ([2]; 0.005 μg/ml): 65%; % Suppression ([3]; 50.0 mg/kg, i.p.): 49%; % Suppression ([3]; 100 mg/kg, i.p.): 0%; % Suppression ([3]; 150.0 mg/kg, i.p.): 4%; % Suppression ([3]; 200 mg/kg, i.p.): 0% |
| C#CC(/C=C/CCCCCCCCCCCCCCC)OC(C)=O (centres unmarked) [CH3 (CH2)14 CH=CH--CHOAc--C≡CH] | 73 |  |  | 0 | 58 |  |  | 11 | activity at 0.2 µg/mL ([1]; Mus musculus, Splenocyte, 0.2 μg/ml, read-out: % MLR (percentage of positive control)): 0%; activity at 0.8 µg/mL ([1]; Mus musculus, Splenocyte, 0.8 μg/ml, read-out: % MLR (percentage of positive control)): 0%; activity at 3.1 µg/mL ([1]; Mus musculus, Splenocyte, 3.1 μg/ml, read-out: % MLR (percentage of positive control)): 0%; activity at 12.5 µg/mL ([1]; Mus musculus, Splenocyte, 12.5 μg/ml, read-out: % MLR (percentage of positive control)): 0%; viability ([2]; 0.2 μg/ml): 53%; viability ([2]; 0.8 μg/ml): 30%; viability ([2]; 3.1 μg/ml): 30%; viability ([2]; 12.5 μg/ml): 23%; IC50 (P388 cells): 100 µg/mL (≈ 299 µM) |
| C#CC(O)CCC=CCCCCC (centres unmarked) [CH3 (CH2)4 CH=CHCH2 CH2 CHOHC≡CH] | 137 | 122 | 110 | 50 | 65 | 57 | 45 | 51 | % Suppression ([3]; 50.0 mg/kg, i.p.): 35%; Stim. Index (spleen index) ([3]; 50.0 mg/kg, i.p.): 2.09; % Suppression ([3]; 100 mg/kg, i.p.): 59%; Stim. Index (spleen index) ([3]; 100 mg/kg, i.p.): 1.69; % Suppression ([3]; 150.0 mg/kg, i.p.): 28%; Stim. Index (spleen index) ([3]; 150.0 mg/kg, i.p.): 2.21; % Suppression ([3]; 200 mg/kg, i.p.): 57%; Stim. Index (spleen index) ([3]; 200 mg/kg, i.p.): 1.72; suppression of the GVHR (splenomegaly response), in words ([3]; mouse, in vivo): demonstrated suppressive activity in the GVHR at all dosages tested; toxicity as measured by survival of treated recipients, in words ([3]; mouse, in vivo): no associated toxicity as measured by survival of treated recipients |
| C#CC(O)CCCCCCC (centres unmarked) [CH3 (CH2)6 CHOHC≡CH] | 117 | 130 | 131 | 108 | 72 | 85 | 70 | 61 |  |
| C#CC(O)CCCCCCCCCCCCCCC (centres unmarked) [CH3 (CH2)14 CHOHC≡CH] | 100 | 0 | 0 | 0 | 105 | 47 | 36 | 10 |  |
| C#CC(O)C=CC=CCCCC (centres unmarked) [CH3 (CH2)3 CH=CH--CH=CH--CHOHC≡CH] | 134 | 0 | 0 | 0 | 103 | 72 | 14 | 29 |  |
| CCCCCC=CC(O)C#CCCCCCCCC (centres unmarked) [CH3 (CH2)4 CH=CH--CHOH--C≡C--(CH2)7 CH3] |  |  |  |  |  |  |  |  | % MLR (percentage of positive control) ([1]; 0.05 μg/ml): 127%; % MLR (percentage of positive control) ([1]; 0.2 μg/ml): 135%; % MLR (percentage of positive control) ([1]; 0.8 μg/ml): 122%; % MLR (percentage of positive control) ([1]; 3.1 μg/ml): 64%; % MLR (percentage of positive control) ([1]; 12.5 μg/ml): 0%; % MLR (percentage of positive control) ([1]; 50 μg/ml): 0%; % LCV (percentage of positive control) ([4]; 0.05 μg/ml): 128%; % LCV (percentage of positive control) ([4]; 0.2 μg/ml): 119%; % LCV (percentage of positive control) ([4]; 0.8 μg/ml): 105%; % LCV (percentage of positive control) ([4]; 3.1 μg/ml): 86%; % LCV (percentage of positive control) ([4]; 12.5 μg/ml): 28%; % LCV (percentage of positive control) ([4]; 50 μg/ml): 14% |
| O=P1(N(CCCl)CCCl)NCCCO1 (centres unmarked) [Cyclophosphamide, reference compound] |  |  |  |  |  |  |  |  | % Suppression ([3]; 100 mg/kg, i.p.): 160% and 142% and 132%; # Mice (number of surviving mice at end of experiment) ([3]; 100 mg/kg, i.p., 5 mice per group): 5 mice; suppression of the GVHR (splenomegaly response), in words ([3]; mouse, in vivo): displayed the characteristic suppression of the splenomegaly response |
| C#CC(O)CCCC (centres unmarked) [CH3 (CH2)3 CHOHC≡CH] | 89 | 136 | 47 | 0 | 117 | 116 | 0 | 61 |  |
| C#CC(O)C=CCCCCCCCCCCCCCCCC (centres unmarked) [CH3 (CH2)15 CH=CHCOHC≡CH] |  |  |  |  |  |  |  |  | % MLR (percentage of positive control) ([1]; 0.05 μg/ml): 13%; % MLR (percentage of positive control) ([1]; 0.5 μg/ml): 0%; % MLR (percentage of positive control) ([1]; 5.0 μg/ml): 0%; % MLR (percentage of positive control) ([1]; 50 μg/ml): 0%; % LCV (percentage of positive control) ([4]; 0.05 μg/ml): 78%; % LCV (percentage of positive control) ([4]; 0.5 μg/ml): 78%; % LCV (percentage of positive control) ([4]; 5.0 μg/ml): 17%; % LCV (percentage of positive control) ([4]; 50 μg/ml): 13% |

From US5166379A, “Synthesis of compounds with biological activity, and methods of use” (Harbor Branch Oceanographic Institution, Inc., priority 1990, dated 1992)
